The record followed here is patent US20250313563A1, “GLYCOGEN SYNTHASE KINASE 3 INHIBITORS AND USES THEREOF” (The Broad Institute, Inc., priority 2022, published 2025).

pIC50: −log10 of the molar value. Like-named read-outs stand apart in the source and are kept apart here. Bounds are passed on as bounds.

The target in data set [1] is GSK3α (Homo sapiens (Human), UniProt P49840). Nature of the data set: pThr231 tau phosphorylation plate-based assay in HEK-huTau cells transfected with GSK3α. The following applies: for pIC50: HEK-huTau cells transfected with human GSK3α, 10-point dose response, 2 hours, read-out: GSK3α IC50 (inhibition of pThr231); for selectivity for GSK3α over GSK3β: pThr231 HEK-huTau assay, GSK3β IC50 / GSK3α IC50. The data set is classed as cell-based. The protocol:
(§1) HEK293 or SH-SY5Y cells were obtained from American Type Culture Collection (ATCC, Manassas, VA) and cultured in Dulbecco's modified Eagle's medium (DMEM) supplemented with 10% fetal bovine serum (FBS), 10 units/ml penicillin, and 10 μg/ml streptomycin (all reagents were purchased from Gibco, Waltham, MA). Cell cultures were maintained in a humidified 5% (v/v) CO2/air environment at 37° C. When the cells reached 50-80% confluence, they were transfected with a complex consisting of a 3:1 ratio of FuGENE 6 Transfection Reagent (Promega, Madison, WI) and plasmid DNA. Plasmid DNA was balanced out across reactions using an empty plasmid so that the same amount of DNA was added per well. This transfection complex was prepared following the manufacturers protocol and added directly to the cell media for 24 or 48 hours prior to lysis.
(§2) 293T cells stably expressing human 2N4R Tau were transfected with appropriate cDNA plasmids. 24 hours following transfection cells were treated with compound in a 10-point dose-response (from 1000× stocks of compound) and lysates harvested 2 hours later with cell extraction buffer (Life Technologies Cat #BN0001) or RIPA Buffer with Halt protease/phosphatase inhibitors added.
(§3) For pThr231 assay: Lysate was diluted 1:100 in assay buffer and Total Tau and pTau T231 was assessed by plate-based ELISA as per manufacturer instructions (MSD Cat #K15121D-1). Total fluorescence was measured using an Envison plate reader.
(§4) To test the potency and isoform selectivity of GSK3 small molecule inhibitors, HEK-huTau cells were transfected with plasmids containing either human GSK3α or GSK3β. Twenty-four hours after transfection, compounds were added at a 10-point dose response curve (at a range of 30 μM-3 nM) for a total of 2 hours, and cell lysates were probed for total tau and pThr231 using a plate-based assay.

Data set [2] deals with human GSK3β (Homo sapiens (Human), UniProt P49841). Kind of data set: pThr231 tau phosphorylation plate-based assay in HEK-huTau cells transfected with GSK3β. The data set is classed as cell-based. The following applies: for pIC50: HEK-huTau cells transfected with human GSK3β, 10-point dose response, 2 hours, read-out: GSK3β IC50 (inhibition of pThr231). How it is done:
as §1, §2, §3, §4

Data set [3] has as its target T1, NanoLuc-GSK3α (Homo sapiens (Human), UniProt P49840). Kind of data set: NanoBRET live-cell target engagement assay, GSK3α. The data set is classed as cell-based. The following applies: HEK293T cells, Tracer-8 at EC50. The protocol: (§5) HEK293T cells were transiently transfected with NanoLuc®-GSK3-alpha or NanoLuc®-GSK3-beta constructs using FuGene®-HD (Promega). Next day, the live cell NanoBRETTM target engagement assay was performed. […] Immediately prior to BRET measurements, NanoBRETTM Nano-Glo® Substrate and Extracellular NanoLuc® Inhibitor were added on cells and incubated for 2-3 minutes at room temperature. Donor emission at 450 nm and acceptor emission at 610 nm were measured using a EnVision plate reader. Raw BRET ratio values were calculated by dividing the acceptor emission value by the donor emission value for each sample. Raw BRET units were converted to milliBRET units (mBU) by multiplying each raw BRET value by 1000. mBU values for compound treatments were normalized to DMSO treatment. Ki values are calculated using the formula: Ki=(IC50)/(1+([Tracer]/EC50)). All experiments were performed as biological triplicates with three technical replications.
(§6) To further characterize the GSK3 inhibitor 837646, this compound was tested in a live-cell target engagement assay to investigate binding mode and residence time. […] In this assay, compound binding was quantified as loss of BRET signal from baseline due to competitive displacement of the tracer. […]
For orientation: Bioluminescence resonance energy transfer reports proximity on the nanometre scale.

The target of data set [4] is NanoLuc-GSK3β (Homo sapiens (Human), UniProt P49841). Nature of the data set: NanoBRET live-cell target engagement assay, GSK3β. The data set is classed as cell-based. The following applies: HEK293T cells, Tracer-8 at EC50. The protocol:
as §5, §6

Data set [5] has as its target T1, NanoLuc-GSK3α. Kind of data set: NanoBRET residence time, GSK3α. The data set is classed as cell-based. To be noted: inhibitor at 10× IC50, BRET every 5 min for 3 hours.
Data set [6] deals with β-catenin nuclear translocation in SH-SY5Y cells. Nature of the data set: β-catenin translocation assay. To be noted: for β-catenin nuclear translocation (in words): SH-SY5Y cells. The data set is classed as cell-based. The protocol:
SH-SY5Y cells were seeded into a 96-well CellCarrier Ultra (Perkin Elmer) plate at a density of 1×10^5 cells/ml in complete DMEM. Sixteen hours following plating, media was changed to DMEM with 2% serum, and compound was added with a D300e Digital Dispenser (Tecan) for an incubation time of six hours. After compound incubation, media was removed, and cells were fixed with 4% PFA for 10 minutes at room temperature. Each well was washed three times with PBS-T and then blocked with buffer (1×PBS with 5% Normal Goat Serum and 0.3% Triton X-100) for 30 minutes at room temperature. β-Catenin primary antibody (Cell Signaling #8480) was added at 1:500 dilution in blocking buffer and the cells were allowed to incubate in primary overnight at 4° C. The following day, primary antibody was removed, each well was washed three times with PBS-T, and secondary antibody (1:2000 anti-rabbit AlexaFluor Plus 488 and 1:10,000 Hoechst 33342) was added and allowed to incubate for 60 minutes at room temperature protected from light. After one-hour, secondary antibody was removed and wells were washed four times with PBS-T before imaging on the Opera Phenix. Sixteen fields per well were imaged with a 20× water lens.
Images were quantified in the Columbus Image Data Storage and Analysis software. Cells were identified using the Hoechst nuclear stain to identify individual nuclei. Intensity of the nuclear stain was also used to determine cell viability (Viable cells <30% CV of Hoechst Intensity)

Data set [7] deals with GSK3α (GST-full length GSK3α) (Homo sapiens (Human), UniProt P49840). Nature of the data set: GSK3α TR-FRET kinase assay. The data set is classed as biochemical. The procedure, abridged:
(§7)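 1 nM GST-GSK3α/β + cpd, 30 min preinc; add 200 nM biotin-pS645 GS(631-650) peptide + ATP (α 4 μM / β 2 μM, or 1 mM); 100 min RT, 50 mM Tris pH 7.5, 20 mM MgCl2, 1% DMSO; EDTA stop; SA-d2/Tb-pSer641 Ab 60 min; 665/615 ratio → IC50.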
On the technique in general: In TR-FRET formats the signal depends on donor and acceptor labels being close together.

For data set [8], the target named is GSK3b (GST-full length GSK3b) (Homo sapiens (Human), UniProt P49841). Kind of data set: GSK3b TR-FRET kinase assay. The data set is classed as biochemical. Put shortly:
as §7

[9] abbreviates: 1 nM GSK3α, 4 μM ATP, 30 minute preincubation, Table 16, read-out: GSK3-A TR-FRET BIOCHEMICAL (TR-FRET).
Setting [10] is: 1 nM GSK3b, 2 μM ATP, 30 minute preincubation, Table 16, read-out: GSK3-B TR-FRET BIOCHEMICAL (TR-FRET).

Sequence of human GSK3β (P49841 whole entry): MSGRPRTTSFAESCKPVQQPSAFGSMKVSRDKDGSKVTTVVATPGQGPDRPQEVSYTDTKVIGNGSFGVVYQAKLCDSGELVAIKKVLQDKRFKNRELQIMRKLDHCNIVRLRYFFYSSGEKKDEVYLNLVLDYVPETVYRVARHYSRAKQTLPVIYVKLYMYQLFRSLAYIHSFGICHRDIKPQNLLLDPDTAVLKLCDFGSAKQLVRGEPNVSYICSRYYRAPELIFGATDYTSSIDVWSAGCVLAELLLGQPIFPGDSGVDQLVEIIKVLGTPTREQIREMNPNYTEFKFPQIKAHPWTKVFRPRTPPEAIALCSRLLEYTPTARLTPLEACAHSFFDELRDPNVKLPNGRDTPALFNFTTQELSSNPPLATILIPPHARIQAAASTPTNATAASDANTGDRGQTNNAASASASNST
Sequence of GSK3b (GST-full length GSK3b) (P49841 whole entry): as above
Sequence of GSK3α (GST-full length GSK3α) (P49840 whole entry): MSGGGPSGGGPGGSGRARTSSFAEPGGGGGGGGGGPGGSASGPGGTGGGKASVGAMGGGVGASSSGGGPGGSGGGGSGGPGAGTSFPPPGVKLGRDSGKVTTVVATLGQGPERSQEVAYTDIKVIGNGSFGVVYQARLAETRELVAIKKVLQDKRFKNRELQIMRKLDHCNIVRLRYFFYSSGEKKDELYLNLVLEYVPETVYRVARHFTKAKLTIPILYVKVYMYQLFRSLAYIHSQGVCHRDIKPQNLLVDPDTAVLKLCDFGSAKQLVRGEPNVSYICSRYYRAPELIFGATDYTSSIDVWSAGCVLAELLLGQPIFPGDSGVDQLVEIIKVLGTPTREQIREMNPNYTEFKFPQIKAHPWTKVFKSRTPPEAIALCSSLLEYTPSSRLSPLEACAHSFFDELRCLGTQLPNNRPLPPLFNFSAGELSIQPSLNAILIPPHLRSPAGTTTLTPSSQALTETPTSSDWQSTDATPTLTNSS
T1 sequence (P49840 whole entry): as above
Sequence of GSK3α (P49840 whole entry): as above
Sequence of NanoLuc-GSK3β (P49841 whole entry): as the sequence (P49841 whole entry) above

As to `CCC1(c2cccc(-c3cn(C)nc3C)c2)C2=C(Nc3n[nH]cc31)C(F)C(C)(C)CC2=O` (single isomer, unassigned) [Compound 947651, 4-(3-(1,3-dimethyl-1H-pyrazol-4-yl)phenyl)-4-ethyl-8-fluoro-7,7-dimethyl-2,4,6,7,8,9-hexahydro-5H-pyrazolo[3,4-b]quinolin-5-one], the pIC50 in data set [1] was 7.21; in data set [2] it was 5.85; in data set [7] (setting [9]) it was at least 7.00; in data set [7] (GSK3-A (TR-FRET 1 mM ATP), GMean, IC50, 1 mM ATP, geometric mean), at least 7.00; in data set [8] (setting [10]), at least 7.00; in data set [8] (GSK3-B (TR-FRET 1 mM ATP), GMean, IC50, 1 mM ATP, geometric mean) it was 6.00 to 7.00. Also, in data set [1], the “selectivity for GSK3α over GSK3β” value worked out at 23 fold. Further, in data set [3], the “binding mode (competitive displacement of tracer), GSK3α” value was “ATP-competitive and direct GSK3 binders”. For the same compound, the “binding mode (competitive displacement of tracer), GSK3β” value in data set [4] was “ATP-competitive and direct GSK3 binders”. For the same compound, the “residence time at GSK3α” value in data set [5] is on record as “significantly longer residence times”. Also, the “β-catenin nuclear translocation (in words)” value in data set [6] is given as “nuclear translocation of β-catenin occurred at concentrations in which both GSK3 paralogs are being inhibited”.
`CCC1(c2cccc(-c3c(F)cncc3OC)c2)C2=C(Nc3n[nH]cc31)C(F)C(C)(C)CC2=O` (stereo not drawn) [Compound 948546, 4-ethyl-8-fluoro-4-(3-(3-fluoro-5-methoxypyridin-4-yl)phenyl)-7,7-dimethyl-2,4,6,7,8,9-hexahydro-SH-pyrazolo[3,4-b]quinolin-5-one]: the pIC50 was 7.02 in data set [1]; 6.00 in data set [2]; at least 7.00 in data set [7] (setting [9]); at least 7.00 in data set [7] (read-out: GSK3-A (TR-FRET 1 mM ATP), GMean, IC50, 1 mM ATP, geometric mean); at least 7.00 in data set [8] (setting [10]); 6.00 to 7.00 in data set [8] (read-out: GSK3-B (TR-FRET 1 mM ATP), GMean, IC50, 1 mM ATP, geometric mean). For the same compound, in data set [1], the “selectivity for GSK3α over GSK3β” value is recorded as 11 fold. Further, in data set [3], the “binding mode (competitive displacement of tracer), GSK3α” value is “ATP-competitive and direct GSK3 binders”. For the same compound, the “binding mode (competitive displacement of tracer), GSK3β” value in data set [4] was “ATP-competitive and direct GSK3 binders”. Also, the “residence time at GSK3α” value in data set [5] is “significantly longer residence times”. For the same compound, the “β-catenin nuclear translocation (in words)” value in data set [6] was “nuclear translocation of β-catenin occurred at concentrations in which both GSK3 paralogs are being inhibited”.
Take `CC[C@@]1(c2ccccc2)C2=C(CC(C)(C)CC2=O)Nc2[nH]ncc21` [BRD0705, reference compound]: the “toxicity of compound in HEK-huTau assay (doses)” value in data set [2] (GSK3β IC50 undetermined due to toxicity) is over 30 µM. For the same compound, the “window between potency on tau phosphorylation by GSK3α and concentrations affecting β-catenin stabilization” value in data set [6] (HEK-huTau GSK3α vs SH-SY5Y β-catenin) is listed as over 5 fold.
